Holding throughout (type): cell-based
In experiment [1] the target is GLR-1, STG-2, SOL-1 and SOL-2 (Caenorhabditis elegans, UniProt P34299). The experiment is described as follows: two-electrode voltage clamp, Xenopus oocytes, agonist-gated current. For orientation: Two-electrode voltage clamp is typically applied to oocytes expressing channels or transporters.
Experiment [2] deals with T1, GLR-1, STG-2 and SOL-1 (Caenorhabditis elegans, UniProt P34299, Q552Y).
T1 sequence (P34299 26-962 Q552Y): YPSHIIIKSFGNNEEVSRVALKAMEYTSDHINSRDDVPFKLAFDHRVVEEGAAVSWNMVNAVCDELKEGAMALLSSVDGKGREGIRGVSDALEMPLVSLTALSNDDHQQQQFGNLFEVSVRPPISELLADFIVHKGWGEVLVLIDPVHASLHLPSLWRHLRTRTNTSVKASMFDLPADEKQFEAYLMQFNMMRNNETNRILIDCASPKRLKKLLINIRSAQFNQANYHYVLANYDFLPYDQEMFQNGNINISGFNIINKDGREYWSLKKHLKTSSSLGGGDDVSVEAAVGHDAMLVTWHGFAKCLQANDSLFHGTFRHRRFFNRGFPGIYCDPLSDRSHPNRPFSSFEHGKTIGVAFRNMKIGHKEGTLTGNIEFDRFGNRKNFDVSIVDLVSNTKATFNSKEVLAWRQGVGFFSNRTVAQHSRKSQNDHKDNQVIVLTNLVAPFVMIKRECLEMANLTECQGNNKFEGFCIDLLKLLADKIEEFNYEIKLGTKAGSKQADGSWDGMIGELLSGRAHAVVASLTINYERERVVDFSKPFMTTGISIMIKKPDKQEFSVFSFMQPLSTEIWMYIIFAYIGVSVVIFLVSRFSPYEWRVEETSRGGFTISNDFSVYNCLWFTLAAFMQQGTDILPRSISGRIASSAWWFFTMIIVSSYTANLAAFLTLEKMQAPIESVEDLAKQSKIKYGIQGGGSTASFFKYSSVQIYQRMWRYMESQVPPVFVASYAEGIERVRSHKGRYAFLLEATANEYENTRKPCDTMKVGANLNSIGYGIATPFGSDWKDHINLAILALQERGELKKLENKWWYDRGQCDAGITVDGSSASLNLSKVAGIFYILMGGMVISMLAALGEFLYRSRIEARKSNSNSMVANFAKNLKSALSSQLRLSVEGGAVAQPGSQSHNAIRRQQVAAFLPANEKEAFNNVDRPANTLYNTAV
T1 sequence (G5EBI8 1-357 partner): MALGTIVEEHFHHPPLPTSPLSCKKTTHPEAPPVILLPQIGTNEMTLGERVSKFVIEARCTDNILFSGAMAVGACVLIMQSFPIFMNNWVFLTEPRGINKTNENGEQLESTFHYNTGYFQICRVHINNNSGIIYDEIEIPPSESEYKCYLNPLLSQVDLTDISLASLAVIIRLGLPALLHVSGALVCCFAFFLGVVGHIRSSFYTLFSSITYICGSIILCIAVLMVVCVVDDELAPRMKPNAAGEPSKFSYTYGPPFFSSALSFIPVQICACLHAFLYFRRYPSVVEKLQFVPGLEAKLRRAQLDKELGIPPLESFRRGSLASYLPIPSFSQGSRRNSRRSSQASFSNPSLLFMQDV
T1 sequence (Q93212 24-594 partner): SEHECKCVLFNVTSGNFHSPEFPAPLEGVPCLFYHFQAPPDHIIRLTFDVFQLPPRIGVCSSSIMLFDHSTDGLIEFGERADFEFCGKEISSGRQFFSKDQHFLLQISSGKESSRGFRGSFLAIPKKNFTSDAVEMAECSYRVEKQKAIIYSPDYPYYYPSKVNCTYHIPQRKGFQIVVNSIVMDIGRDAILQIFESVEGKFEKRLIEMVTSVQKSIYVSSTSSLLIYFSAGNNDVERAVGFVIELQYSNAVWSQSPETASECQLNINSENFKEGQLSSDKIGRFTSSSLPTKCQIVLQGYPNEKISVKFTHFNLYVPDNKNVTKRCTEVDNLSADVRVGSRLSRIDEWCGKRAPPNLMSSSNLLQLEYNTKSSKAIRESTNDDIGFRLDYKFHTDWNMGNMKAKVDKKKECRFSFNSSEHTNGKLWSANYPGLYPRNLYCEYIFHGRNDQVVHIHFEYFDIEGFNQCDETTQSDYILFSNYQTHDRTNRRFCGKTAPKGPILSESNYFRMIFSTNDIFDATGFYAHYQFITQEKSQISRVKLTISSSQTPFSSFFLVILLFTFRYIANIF
The experiment is described as above. Conditions: 1 mM glutamate.

Experiment [3] deals with T2, GLR-1, STG-2 and SOL-1 (Caenorhabditis elegans, UniProt P34299).
T2 sequence (P34299 26-962): T1 sequence (P34299 26-962 Q552Y) with Y527Q
T2 sequence (G5EBI8 1-357 partner): T1 sequence (G5EBI8 1-357 partner)
T2 sequence (Q93212 24-594 partner): T1 sequence (Q93212 24-594 partner)
Described as above.

Experiment [4] has as its target GLR-1, STG-1, SOL-1 and SOL-2 (Caenorhabditis elegans, UniProt P34299). Nature of the experiment: patch clamp of C. elegans muscle cells. Conditions: -60 mV.
For experiment [5], the target named is GLR-1, STG-2, SOL-1 and SOL-2 (Caenorhabditis elegans, UniProt P34299, Q552Y). The experiment is described as follows: two-electrode voltage clamp, Xenopus oocytes, agonist-gated current. Conditions: 1 mM glutamate.
Sequence of GLR-1, STG-2, SOL-1 and SOL-2 (Caenorhabditis elegans, UniProt P34299, Q552Y) (Q9XUU2 19-436 partner, one chain of several): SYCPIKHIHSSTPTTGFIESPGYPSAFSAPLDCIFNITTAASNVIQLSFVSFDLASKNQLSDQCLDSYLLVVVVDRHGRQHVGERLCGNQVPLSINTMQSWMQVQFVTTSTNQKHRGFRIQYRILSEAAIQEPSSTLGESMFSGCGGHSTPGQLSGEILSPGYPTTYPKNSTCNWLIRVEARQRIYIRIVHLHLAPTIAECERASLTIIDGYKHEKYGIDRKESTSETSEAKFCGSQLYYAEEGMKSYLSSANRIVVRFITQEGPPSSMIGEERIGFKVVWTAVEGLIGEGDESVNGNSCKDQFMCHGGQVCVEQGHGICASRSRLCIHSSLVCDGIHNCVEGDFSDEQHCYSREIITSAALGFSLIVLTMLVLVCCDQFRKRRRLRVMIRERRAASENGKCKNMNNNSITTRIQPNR
For experiment [6], the target named is T3, GLR-1, STG-1 and SOL-1 (Caenorhabditis elegans, UniProt P34299).
T3 sequence (P34299 26-962): T1 sequence (P34299 26-962 Q552Y) with Y527Q
T3 sequence (Q15KL0 1-366 partner): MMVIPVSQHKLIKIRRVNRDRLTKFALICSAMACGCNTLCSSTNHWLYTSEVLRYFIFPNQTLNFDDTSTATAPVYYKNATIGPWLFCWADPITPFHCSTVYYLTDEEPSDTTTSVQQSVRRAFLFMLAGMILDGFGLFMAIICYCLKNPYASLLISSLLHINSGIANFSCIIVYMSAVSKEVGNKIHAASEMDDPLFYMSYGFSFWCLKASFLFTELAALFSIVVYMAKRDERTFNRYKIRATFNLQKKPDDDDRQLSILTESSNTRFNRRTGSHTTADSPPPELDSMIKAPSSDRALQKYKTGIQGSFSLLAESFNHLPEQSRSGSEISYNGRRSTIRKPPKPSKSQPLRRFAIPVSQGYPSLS
T3 sequence (Q93212 24-594 partner): T1 sequence (Q93212 24-594 partner)
The experiment is described as follows: patch clamp of C. elegans muscle cells. Conditions: 100 μM kainate; -60 mV; partial agonist. On the technique in general: In patch-clamp work, channel activity is measured electrically.

Where [7] appears, read: 100 μM kainate, partial agonist.

The results in this text go back to paper PMC3458792 (Neuron, 2012).

SMILES strings stand for the structures. Where a chain is given by its changes, count along the chain named.

Sequence of GLR-1, STG-1, SOL-1 and SOL-2 (P34299 26-962, one chain of several): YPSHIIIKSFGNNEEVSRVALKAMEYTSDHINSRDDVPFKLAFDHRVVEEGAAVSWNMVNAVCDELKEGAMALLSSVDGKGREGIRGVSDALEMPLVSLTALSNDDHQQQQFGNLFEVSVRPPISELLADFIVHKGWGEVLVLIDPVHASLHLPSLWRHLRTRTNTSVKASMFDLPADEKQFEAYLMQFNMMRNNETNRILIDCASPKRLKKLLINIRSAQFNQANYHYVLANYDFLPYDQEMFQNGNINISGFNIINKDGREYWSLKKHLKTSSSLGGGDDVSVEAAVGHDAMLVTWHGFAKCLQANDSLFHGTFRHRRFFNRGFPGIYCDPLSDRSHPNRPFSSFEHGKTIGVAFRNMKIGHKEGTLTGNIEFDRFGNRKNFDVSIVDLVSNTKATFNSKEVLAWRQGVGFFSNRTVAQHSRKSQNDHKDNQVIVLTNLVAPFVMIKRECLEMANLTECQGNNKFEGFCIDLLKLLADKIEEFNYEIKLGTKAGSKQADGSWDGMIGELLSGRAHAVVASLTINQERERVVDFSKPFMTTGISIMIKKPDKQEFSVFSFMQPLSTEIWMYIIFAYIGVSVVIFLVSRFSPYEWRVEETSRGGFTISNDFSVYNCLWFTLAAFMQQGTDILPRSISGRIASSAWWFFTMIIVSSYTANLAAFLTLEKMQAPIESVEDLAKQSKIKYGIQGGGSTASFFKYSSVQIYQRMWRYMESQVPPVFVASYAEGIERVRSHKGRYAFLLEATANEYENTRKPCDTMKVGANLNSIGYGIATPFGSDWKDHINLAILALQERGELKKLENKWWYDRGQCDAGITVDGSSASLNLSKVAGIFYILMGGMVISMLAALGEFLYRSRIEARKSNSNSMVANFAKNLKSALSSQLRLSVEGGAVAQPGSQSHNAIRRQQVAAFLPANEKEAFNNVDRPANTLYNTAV
Sequence of GLR-1, STG-1, SOL-1 and SOL-2 (Q9XUU2 19-436 partner, one chain of several): as the sequence (Q9XUU2 19-436 partner, one chain of several) above
Sequence of GLR-1, STG-2, SOL-1 and SOL-2 (Caenorhabditis elegans, UniProt P34299) (P34299 26-962, one chain of several): as the sequence (P34299 26-962, one chain of several) above
Sequence of GLR-1, STG-2, SOL-1 and SOL-2 (Caenorhabditis elegans, UniProt P34299) (Q9XUU2 19-436 partner, one chain of several): as the sequence (Q9XUU2 19-436 partner, one chain of several) above

In the case of `N[C@@H](CCC(=O)O)C(=O)O` [Glu, glutamate], the “two-electrode voltage clamp, Xenopus oocytes, agonist-gated current” value is “We recorded both glutamate- and kainate-gated currents from oocytes” in experiment [1] (1 mM glutamate, agonist); “glutamate-gated current recorded from Xenopus oocytes that expressed GLR-1(Q552Y), STG-2, and SOL-1 did not desensitize” in experiment [2]; “We recorded both glutamate- and kainate-gated currents from oocytes” in experiment [3] (1 mM glutamate, agonist); “there was considerable desensitization when SOL-2 was co-expressed” in experiment [5]. Also, the “patch clamp of C. elegans muscle cells” value in experiment [4] (3 mM glutamate, agonist) was “glutamate-gated currents of approximately the same magnitude and kinetics in transgenic muscles”.
As for `C=C(C)[C@H]1CN[C@H](C(=O)O)[C@H]1CC(=O)O` [KA, kainate], the “two-electrode voltage clamp, Xenopus oocytes, agonist-gated current” value in experiment [1] (setting [7]) was “The kainate-gated current appeared faster and smaller with co-expression of SOL-2”; in experiment [3] (setting [7]), “We recorded both glutamate- and kainate-gated currents from oocytes”. The “patch clamp of C. elegans muscle cells” value in experiment [4] (setting [7]) and in experiment [6] was “the presence of SOL-2 markedly reduced the magnitude of the kainate-gated current” throughout.
